Assay results as given in US20030232851A1, “Viral treatment” (The Procter & Gamble Company, priority 1999, published 2003).
Values joined by “and” are separate entries in the source; they are usually repeats but may differ in a detail not shown here. Equal values may be shown once.

Molecular target: HIV-1 integrase (Human immunodeficiency virus type 1 group M subtype B, UniProt P04585)
Experiment: HIV-1 integrase inhibition assay
Assay type: biochemical
Design: HIV-1 Integrase Inhibition, sample reading / HIV-1 Integrase Inhibition, mean: unit not given here
Conditions: for HIV-1 Integrase Inhibition, sample reading: sample 1, sample 2
Text: A biochemical integrase assay described by Craigie et at (HIV, vol. 2: A practical Approach) Biochemistry, Molecular Biology and Drug Discovery, Ed. J. Kam 1995) to screen agents for their ability to inhibit HIV-1 integrase. In this system, a kinased oligonucleotide serves as the target of 3′ processing and the subsequent strand transfer reaction. The 3′ processing reaction involves the removal of 2 nucleotides from the 3′ ends of the substrate and this is followed by the strand transfer reaction in which the 3′ ends are joined to the exposed 5′ ends. The 20 μl reaction mixture contains 25 mM MOPS (pH 7.2), […] BSA, 10 mM β-mercaptoethanol, 10% glycerol, 7.5 mM MnCl2, 25 nM (7 ng) substrate (Oligo's Etc., Wilsonville, Oreg.) and 200 nM (128 ng) integrase (NIAID AIDS Research and Reference Reagent Program, Bethesda, Md.). The reaction proceeds at 37° C. for 1-2 hours and is terminated by the addition of 20 μl of sequencing stop solution (JSB Amersham, Arlington Heights, Ill.). The reaction products are visualized by autoradiography following electrophoresis in 15% polyacrylamide 6M Urea gel. The substrate migrates as a 30 mer, the product of 3′ processing migrates as an N-2 band and the strand transfer products migrate more slowly at various sizes larger than the substrate.

c1csc(-c2nc3cccnc3[nH]2)c1 [2-(2-thienyl)-imidazolo [4,5-b]pyridine]
EC50: > 497 µM | HIV-1 Integrase Inhibition, mean (0.1 μg/ml): 10577 | HIV-1 Integrase Inhibition, sample reading (0.1 μg/ml): 11155.2 and 9998.8 | HIV-1 Integrase Inhibition, mean (1 μg/ml): 10104 | HIV-1 Integrase Inhibition, sample reading (1 μg/ml): 10640.4 and 9568.4 | HIV-1 Integrase Inhibition, mean (10 μg/ml): 10580 | HIV-1 Integrase Inhibition, sample reading (10 μg/ml): 10814.1 and 10345.1 | HIV-1 Integrase Inhibition, mean (100 μg/ml): 7214 | HIV-1 Integrase Inhibition, sample reading (100 μg/ml): 7639.4 and 6788.6
